Measured values reported in PMC8850458, “The AUTOTAC chemical biology platform for targeted protein degradation via the autophagy-lysosome system” (Nature Communications, 2022).
Several values for one entry are separate records, joined by “and”; a condition that tells them apart may be missing. Equal values may be shown once.

Key:
[1] = system: RFP-GFP-hTauP301L pre-formed inclusion bodies; test: ICC of mRFP-GFP-hTauP301L inclusion bodies (puncta, GFP/RFP ratio) in HeLa cells; format: cell-based; settings: Fig. S6i, PBA-1105 given with O.A.
Method: Cells were cultured on coverslips coated with poly-L-lysine (Sigma) to observe cellular localization of proteins. Using 4% paraformaldehyde in PBS (pH 7.4), the cells were fixed for 15 min at room temperature and washed three times for 5 min with PBS. After fixing, the cells were permeabilized with 0.5% Triton X-100 in PBS solution for 15 min and washed three times with PBS for 5 min. The cells were blocked containing 2% BSA in PBS solution for 1 h at room temperature. Subsequently, the cells were incubated with primary antibody diluted in 2% BSA/PBS solution overnight at 4 °C, followed by washing the cells three times for 10 min with PBS and incubated with Alexa Fluor-conjugated secondary antibody diluted in 2% BSA/PBS for 30 min at room temperature. Using a DAPI-containing mounting medium (Vector Laboratories), the coverslips were mounted on glass slides. Confocal images were taken by laser scanning confocal microscope 510 Meta (Zeiss) and analyzed by Zeiss LSM Image Browser (ver. 4.2.0.121). […] Quantification results are shown as mean ± S.D. or S.E.M. of three independent experiments […]
Supplementary Fig. 6. […]
(0.1 μM, 24 h). (h) ICC in HeLa cells transiently expressing mRFP-GFP-hTauP301L and treated with okadaic acid (15 nM, 24 h) prior to the presence or absence of PBA-1105 (100 nM, […]
24 h). Scale bar, 10 µm. (i) Quantification of h for punctate formation and GFP/RFP ratio (n=3 biologically independent experiments each counting 50 cells and 10 puncta within one image).
Data are presented as mean values ± SD for aggregate formation and as mean values ± SEM […]
for GFP/RFP ratio. […]
(1 µM, 24 h) or negative control. P-values (from a two-sided unpaired t-test): **P < 0.00662 (for tau aggregate formation), **P < 0.00779 (for GFP/RFP ratio). Source data are provided

[2] = system: LNCaP cells; test: WST-based cell viability assay in LNCaP cells; settings: LNcaP, duplicates; for WST assay raw reading: listed as Vinclo.-2204
[3] = WST-based cell viability assay in LNCaP cells; settings: human, LNCaP cells
[4] = system: AR^+LC3^+ autophagic membranes; test: ICC of AR-LC3 co-localization in LNCaP cells; format: cell-based; settings: 2.5 µM, 24 h
Method: Cells were cultured on coverslips coated with poly-L-lysine (Sigma) to observe cellular localization of proteins. Using 4% paraformaldehyde in PBS (pH 7.4), the cells were fixed for 15 min at room temperature and washed three times for 5 min with PBS. After fixing, the cells were permeabilized with 0.5% Triton X-100 in PBS solution for 15 min and washed three times with PBS for 5 min. The cells were blocked containing 2% BSA in PBS solution for 1 h at room temperature. Subsequently, the cells were incubated with primary antibody diluted in 2% BSA/PBS solution overnight at 4 °C, followed by washing the cells three times for 10 min with PBS and incubated with Alexa Fluor-conjugated secondary antibody diluted in 2% BSA/PBS for 30 min at room temperature. Using a DAPI-containing mounting medium (Vector Laboratories), the coverslips were mounted on glass slides. Confocal images were taken by laser scanning confocal microscope 510 Meta (Zeiss) and analyzed by Zeiss LSM Image Browser (ver. 4.2.0.121). […] Quantification results are shown as mean ± S.D. or S.E.M. of three independent experiments

[5] = WST assay viability relative to con = 100, LNcaP, duplicates
[6] = WST assay viability, AVG %, LNcaP

O=C(CCCc1ccccc1)NCCOCCOCCOCCNCc1ccc(OCc2ccccc2)c(OCc2ccccc2)c1 [PBA-1105]
AVG GFP/RFP ratio per puncta, total AVG ([1]; con 1.00467): 0.4057
AVG GFP/RFP ratio per puncta, relative % AVG ([1]; con 100): 40.3782%
AVG GFP/RFP ratio per puncta, AVG per experiment ([1]; n=1 to n=3): 0.551 and 0.37 and 0.296
puncta formation of cells with AVG RFP/GFP ratio < 0.5, AVG of cells per 50 cells ([1]; RFP-GFP-TauP301L, con 4.33333): 30.3333
puncta formation of cells with AVG RFP/GFP ratio < 0.5, percentage AVG ([1]; RFP-GFP-TauP301L, con 8.66667): 60.6667
puncta formation of cells with AVG RFP/GFP ratio < 0.5, cells counted per 50 cells ([1]; RFP-GFP-TauP301L, single experiments): 33 and 37 and 21

C=CC(C)(O)C(=O)N(C(=O)NCCOCCOCCNCC(O)COc1ccc(OCCc2ccccc2)c(OCCc2ccccc2)c1)c1cc(Cl)cc(Cl)c1 (stereo not shown) [VinclozolinM2-2204]
WST assay raw reading ([2]; 0.01uM): 1.976 and 1.95
WST assay viability relative to con = 100 ([2]; 0.01uM, listed as Vinclo.-2204, 0.01 µM): 92.2257
WST assay raw reading ([2]; 0.1uM): 1.955 and 1.92
WST assay viability relative to con = 100 ([2]; 0.1uM, listed as Vinclo.-2204, 0.1 µM): 90.7275
WST assay raw reading ([2]; 1uM): 1.902 and 1.905
WST assay viability relative to con = 100 ([2]; 1uM, listed as Vinclo.-2204, 1 µM): 89.9784
WST assay raw reading ([2]; 10uM): 0.595 and 0.848
WST assay viability relative to con = 100 ([2]; 10uM, listed as Vinclo.-2204, 10 µM): 37.1899
WST assay raw reading ([2]; 50uM): 0.14 and 0.144
WST assay viability relative to con = 100 ([2]; 50uM, listed as Vinclo.-2204, 50 µM): 2.031
WST assay raw reading ([2]; 100uM): 0.164 and 0.166
WST assay viability relative to con = 100 ([2]; 100uM, listed as Vinclo.-2204, 100 µM): 3.13
IC50 [3]: 4.7 µM
viability at 0.01 µM [3, 5]: 93.5%
viability at 0.1 µM [3, 5]: 92.5%
viability at 1 µM [3, 5]: 89.8%
viability at 10 µM [3, 5]: 24.6%
viability at 50 µM [3, 5]: 1.83%
viability at 100 µM [3, 5]: 3.03%
viability at 0.01 µM [3, 6]: 92.9%
viability at 0.1 µM [3, 6]: 91.6%
viability at 1 µM [3, 6]: 89.9%
viability at 10 µM [3, 6]: 30.9%
viability at 50 µM [3, 6]: 1.93%
viability at 100 µM [3, 6]: 3.08%
AR-LC3 colocalization, AVG of cells of 50 [4]: 40
AR-LC3 colocalization, percentage AVG [4]: 80%
AR-LC3 colocalization, cells of 50 cells counted ([4]; single experiments, listed as Vinclo.-2204): 41 and 36 and 43
